Measurements as given in US20210045385A1, “PYRIDAZINONE-SUBSTITUTED KETOXIMES AS HERBICIDES” (FMC Corporation, priority 2018, published 2021).

Key:
Format in all cases: in vivo
[1] = tested on: Italian ryegrass (Lolium mutiflorum); test: Test C preemergence, visual plant response rating
How it was run: (§1)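 Compounds in a non-phytotoxic solvent with surfactant were applied as a directed soil spray preemergence or to 2–10 cm, one- to two-leaf plants postemergence, in loam–sand soil. After about 10 d in a greenhouse, injury was visually rated against untreated controls on a 0–100 scale (100 = complete control).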

[2] = tested on: barnyardgrass (Echinochloa crus-galli); test: Test C preemergence, visual plant response rating
How it was run: as §1

[3] = tested on: foxtail, giant (giant foxtail, Setaria faberi); test: Test C preemergence, visual plant response rating
How it was run: as §1

kochia (Bassia scoparia) [4] = test: Test C preemergence, visual plant response rating
How it was run: as §1

[5] = tested on: pigweed (Amaranthus retroflexus); test: Test C preemergence, visual plant response rating
How it was run: as §1

[6] = tested on: Italian ryegrass (Lolium mutiflorum); test: Test C postemergence, visual plant response rating
Text: (§2) Seeds of plant species selected from barnyardgrass (Echinochloa crus-galli), kochia (Bassia scoparia), ragweed (common ragweed, Ambrosia artemisiifolia), Italian ryegrass (Lolium mutiflorum), foxtail, giant (giant foxtail, Setaria faberi), foxtail, green (green foxtail, Setaria viridis), and pigweed (Amaranthus retroflexus) were planted into a blend of loam soil and sand and treated preemergence with a directed soil spray using test chemicals formulated in anon-phytotoxic solvent mixture which included a surfactant.
(§3) At the same time, plants selected from these weed species and also wheat (Triticum aestivum), corn (Zea mays), blackgrass (Alopecurus myosuroides), and galium (catchweed bedstraw, Galium aparine) were planted in pots containing the same blend of loam soil and sand and treated with post emergence applications of test chemicals formulated in the same manner. Plants ranged in height from 2 to 10 cm and were in the one- to two-leaf stage for the postemergence treatment. Treated plants and untreated controls were maintained in a greenhouse for approximately 10 d, after which time all treated plants were compared to untreated controls and visually evaluated for injury. Plant response ratings, summarized in Table C, are based on a 0 to 100 scale where 0 is no effect and 100 is complete control. A dash (-)response means no test result.

[7] = tested on: barnyardgrass (Echinochloa crus-galli); test: Test C postemergence, visual plant response rating
Text: as §2, §3

[8] = tested on: blackgrass (Alopecurus myosuroides); test: Test C postemergence, visual plant response rating
Text: as §2, §3

corn (Zea mays) = test: Test C postemergence, visual plant response rating
Text: as §2, §3

[9] = tested on: foxtail, giant (giant foxtail, Setaria faberi); test: Test C postemergence, visual plant response rating
Text: as §2, §3

[10] = tested on: galium (catchweed bedstraw, Galium aparine); test: Test C postemergence, visual plant response rating
Text: as §2, §3

kochia (Bassia scoparia) [11] = test: Test C postemergence, visual plant response rating
Text: as §2, §3

[12] = tested on: pigweed (Amaranthus retroflexus); test: Test C postemergence, visual plant response rating
Text: as §2, §3

[13] = tested on: ragweed (common ragweed, Ambrosia artemisiifolia); test: Test C postemergence, visual plant response rating
Text: as §2, §3

[14] = tested on: wheat (Triticum aestivum); test: Test C postemergence, visual plant response rating
Text: as §2, §3

[15] = tested on: barnyardgrass (Echinochloa crus-galli); test: Test D flooded paddy test, visual plant response rating; conditions: 250 g ai/ha, scale 0 to 100 (0 no effect, 100 complete control), 13 to 15 d
How it was run: (§4)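 Plants were grown to the 2-leaf stage, pots flooded to 3 cm above soil, and compound applied directly into the paddy water, with the depth held throughout. After 13 to 15 d in a greenhouse, response was rated visually against untreated controls on a 0–100 scale (0 no effect, 100 complete control).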

[16] = tested on: duck salad (Heteranthera limosa); test: as above; conditions: 250 g ai/ha, scale 0 to 100 (0 no effect, 100 complete control), 13 to 15 d
How it was run: as §4

rice (Oryza sativa) = test: as above; conditions: 250 g ai/ha, scale 0 to 100 (0 no effect, 100 complete control), 13 to 15 d
How it was run: as §4

[17] = tested on: sedge umbrella (small-flower umbrella sedge, Cyperus difformis); test: as above; conditions: 250 g ai/ha, scale 0 to 100 (0 no effect, 100 complete control), 13 to 15 d
How it was run: as §4

[18] = Test C, postemergence, 125 g ai/ha
[19] = Test C, postemergence, 500 g ai/ha
[20] = Test C, 31 g ai/ha, 0 is no effect, 100 is complete control
[21] = Test C, 125 g ai/ha, 0 is no effect, 100 is complete control

SMILES	Ryegrass, Italian plant response rating (0 to 100 scale) ([1]; 125 g ai/ha)	Barnyardgrass plant response rating (0 to 100 scale) ([2]; 125 g ai/ha)	Foxtail, Giant plant response rating (0 to 100 scale) ([3]; 125 g ai/ha)	Kochia plant response rating (0 to 100 scale) (kochia (Bassia scoparia) [4]; 125 g ai/ha)	Pigweed plant response rating (0 to 100 scale) ([5]; 125 g ai/ha)	Ryegrass, Italian plant response rating (0 to 100 scale) [6, 18]	Barnyardgrass plant response rating (0 to 100 scale) [7, 18]	Blackgrass plant response rating (0 to 100 scale) [8, 18]	Corn plant response rating (0 to 100 scale) (corn (Zea mays); [18])	Foxtail, Giant plant response rating (0 to 100 scale) [9, 18]	Galium plant response rating (0 to 100 scale) [10, 18]	Kochia plant response rating (0 to 100 scale) (kochia (Bassia scoparia) [11]; [18])	Pigweed plant response rating (0 to 100 scale) [12, 18]	Ragweed plant response rating (0 to 100 scale) [13, 18]	Wheat plant response rating (0 to 100 scale) [14, 18]	Plant response rating, Barnyardgrass (Flood) [15]	Plant response rating, Ducksalad (Flood) [16]	Plant response rating, Rice (Flood) (rice (Oryza sativa))	Plant response rating, Sedge, Umbrella (Flood) [17]	Ryegrass, Italian plant response rating (0 to 100 scale) [1, 20]	other results
C#CCON=C(c1c(O)c(OC)nn(C)c1=O)c1cccc2ccccc12 (mixture of isomers) [Compound 168]	20	60	80	0	100	40	40	20	0	50	70	70	60	60	0	0	0	0	0	–	Ryegrass, Italian plant response rating (0 to 100 scale) ([1]; 500 g ai/ha): 90; Barnyardgrass plant response rating (0 to 100 scale) ([2]; 500 g ai/ha): 80; Foxtail, Giant plant response rating (0 to 100 scale) ([3]; 500 g ai/ha): 100; Kochia plant response rating (0 to 100 scale) (kochia (Bassia scoparia) [4]; 500 g ai/ha): 10; Pigweed plant response rating (0 to 100 scale) ([5]; 500 g ai/ha): 100; Ryegrass, Italian plant response rating (0 to 100 scale) [6, 19]: 90; Barnyardgrass plant response rating (0 to 100 scale) [7, 19]: 60; Blackgrass plant response rating (0 to 100 scale) [8, 19]: 80; Corn plant response rating (0 to 100 scale) (corn (Zea mays); [19]): 20; Foxtail, Giant plant response rating (0 to 100 scale) [9, 19]: 90; Galium plant response rating (0 to 100 scale) [10, 19]: 90; Kochia plant response rating (0 to 100 scale) (kochia (Bassia scoparia) [11]; [19]): 80; Pigweed plant response rating (0 to 100 scale) [12, 19]: 100; Ragweed plant response rating (0 to 100 scale) [13, 19]: 90; Wheat plant response rating (0 to 100 scale) [14, 19]: 30
C#CCO/N=C(\c1cc(Cl)cc(Cl)c1Cl)c1c(O)c(C)nn(C)c1=O [Compound 184]	100	90	100	0	60	80	60	0	10	80	90	10	20	100	0	0	0	0	0	0	Barnyardgrass plant response rating (0 to 100 scale) [2, 20]: 0; Foxtail, Giant plant response rating (0 to 100 scale) [3, 20]: 60; Kochia plant response rating (0 to 100 scale) (kochia (Bassia scoparia) [4]; [20]): 0; Pigweed plant response rating (0 to 100 scale) [5, 20]: 50; Ryegrass, Italian plant response rating (0 to 100 scale) ([6]; Postemergence, 31 g ai/ha): 0; Barnyardgrass plant response rating (0 to 100 scale) ([7]; Postemergence, 31 g ai/ha): 50; Blackgrass plant response rating (0 to 100 scale) ([8]; Postemergence, 31 g ai/ha): 0; Corn plant response rating (0 to 100 scale) (corn (Zea mays); Postemergence, 31 g ai/ha): 0; Foxtail, Giant plant response rating (0 to 100 scale) ([9]; Postemergence, 31 g ai/ha): 60; Galium plant response rating (0 to 100 scale) ([10]; Postemergence, 31 g ai/ha): 60; Kochia plant response rating (0 to 100 scale) (kochia (Bassia scoparia) [11]; Postemergence, 31 g ai/ha): 10; Pigweed plant response rating (0 to 100 scale) ([12]; Postemergence, 31 g ai/ha): 10; Ragweed plant response rating (0 to 100 scale) ([13]; Postemergence, 31 g ai/ha): 60; Wheat plant response rating (0 to 100 scale) ([14]; Postemergence, 31 g ai/ha): 0
C#CCO/N=C(\c1c(O)c(Cl)nn(C)c1=O)c1ccc(F)c2ccccc12 [Compound 220]	–	–	–	–	–	100	80	80	40	100	100	80	100	100	90	0	0	0	0	30	Ryegrass, Italian plant response rating (0 to 100 scale) [1, 21]: 100; Barnyardgrass plant response rating (0 to 100 scale) [2, 20]: 0; Barnyardgrass plant response rating (0 to 100 scale) [2, 21]: 90; Foxtail, Giant plant response rating (0 to 100 scale) [3, 20]: 20; Foxtail, Giant plant response rating (0 to 100 scale) [3, 21]: 100; Kochia plant response rating (0 to 100 scale) (kochia (Bassia scoparia) [4]; [20]): 0; Kochia plant response rating (0 to 100 scale) (kochia (Bassia scoparia) [4]; [21]): 60; Pigweed plant response rating (0 to 100 scale) [5, 20]: 30; Pigweed plant response rating (0 to 100 scale) [5, 21]: 100; Ryegrass, Italian plant response rating (0 to 100 scale) ([6]; Postemergence, 31 g ai/ha): 70; Barnyardgrass plant response rating (0 to 100 scale) ([7]; Postemergence, 31 g ai/ha): 40; Blackgrass plant response rating (0 to 100 scale) ([8]; Postemergence, 31 g ai/ha): 30; Corn plant response rating (0 to 100 scale) (corn (Zea mays); Postemergence, 31 g ai/ha): 10; Foxtail, Giant plant response rating (0 to 100 scale) ([9]; Postemergence, 31 g ai/ha): 60; Galium plant response rating (0 to 100 scale) ([10]; Postemergence, 31 g ai/ha): 70; Kochia plant response rating (0 to 100 scale) (kochia (Bassia scoparia) [11]; Postemergence, 31 g ai/ha): 50; Pigweed plant response rating (0 to 100 scale) ([12]; Postemergence, 31 g ai/ha): 80; Ragweed plant response rating (0 to 100 scale) ([13]; Postemergence, 31 g ai/ha): 60; Wheat plant response rating (0 to 100 scale) ([14]; Postemergence, 31 g ai/ha): 40
